Measured values taken from article PMC4086741 (Molecular Pharmaceutics, 2014).

How the values were obtained:
P-gp = P-gp (Homo sapiens, UniProt P08183); test: Calcein-AM transport; conditions: P-gp-overexpressing KB-V1 cells, probe calcein-AM (0.5 μg/mL)
ABCG2 = biological target: T1, ABCG2 (Homo sapiens, UniProt Q9UNQ0); test: Mitoxantrone transport; conditions: ABCG2-overexpressing MCF7-FLV1000 cells, probe mitoxantrone (5 μM)
T1 sequence (Q9UNQ0 1-655): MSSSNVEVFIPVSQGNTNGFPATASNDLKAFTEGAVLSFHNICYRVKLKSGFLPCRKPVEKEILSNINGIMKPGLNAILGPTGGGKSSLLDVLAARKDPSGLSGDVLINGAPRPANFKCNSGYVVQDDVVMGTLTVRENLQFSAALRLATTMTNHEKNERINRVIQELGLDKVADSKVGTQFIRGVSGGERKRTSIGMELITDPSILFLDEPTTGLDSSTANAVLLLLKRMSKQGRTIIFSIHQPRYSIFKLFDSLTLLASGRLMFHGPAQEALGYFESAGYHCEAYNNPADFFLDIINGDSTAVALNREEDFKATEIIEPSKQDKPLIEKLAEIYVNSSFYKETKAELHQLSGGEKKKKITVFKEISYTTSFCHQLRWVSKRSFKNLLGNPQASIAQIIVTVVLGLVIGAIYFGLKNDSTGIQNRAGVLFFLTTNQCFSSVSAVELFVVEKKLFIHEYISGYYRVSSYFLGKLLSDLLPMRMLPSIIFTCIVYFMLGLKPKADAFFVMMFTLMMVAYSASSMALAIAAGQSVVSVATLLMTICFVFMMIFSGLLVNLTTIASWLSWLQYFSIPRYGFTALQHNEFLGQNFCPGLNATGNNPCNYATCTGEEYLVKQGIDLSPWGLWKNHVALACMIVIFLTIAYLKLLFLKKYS

P-gp, sequence (P08183 whole entry): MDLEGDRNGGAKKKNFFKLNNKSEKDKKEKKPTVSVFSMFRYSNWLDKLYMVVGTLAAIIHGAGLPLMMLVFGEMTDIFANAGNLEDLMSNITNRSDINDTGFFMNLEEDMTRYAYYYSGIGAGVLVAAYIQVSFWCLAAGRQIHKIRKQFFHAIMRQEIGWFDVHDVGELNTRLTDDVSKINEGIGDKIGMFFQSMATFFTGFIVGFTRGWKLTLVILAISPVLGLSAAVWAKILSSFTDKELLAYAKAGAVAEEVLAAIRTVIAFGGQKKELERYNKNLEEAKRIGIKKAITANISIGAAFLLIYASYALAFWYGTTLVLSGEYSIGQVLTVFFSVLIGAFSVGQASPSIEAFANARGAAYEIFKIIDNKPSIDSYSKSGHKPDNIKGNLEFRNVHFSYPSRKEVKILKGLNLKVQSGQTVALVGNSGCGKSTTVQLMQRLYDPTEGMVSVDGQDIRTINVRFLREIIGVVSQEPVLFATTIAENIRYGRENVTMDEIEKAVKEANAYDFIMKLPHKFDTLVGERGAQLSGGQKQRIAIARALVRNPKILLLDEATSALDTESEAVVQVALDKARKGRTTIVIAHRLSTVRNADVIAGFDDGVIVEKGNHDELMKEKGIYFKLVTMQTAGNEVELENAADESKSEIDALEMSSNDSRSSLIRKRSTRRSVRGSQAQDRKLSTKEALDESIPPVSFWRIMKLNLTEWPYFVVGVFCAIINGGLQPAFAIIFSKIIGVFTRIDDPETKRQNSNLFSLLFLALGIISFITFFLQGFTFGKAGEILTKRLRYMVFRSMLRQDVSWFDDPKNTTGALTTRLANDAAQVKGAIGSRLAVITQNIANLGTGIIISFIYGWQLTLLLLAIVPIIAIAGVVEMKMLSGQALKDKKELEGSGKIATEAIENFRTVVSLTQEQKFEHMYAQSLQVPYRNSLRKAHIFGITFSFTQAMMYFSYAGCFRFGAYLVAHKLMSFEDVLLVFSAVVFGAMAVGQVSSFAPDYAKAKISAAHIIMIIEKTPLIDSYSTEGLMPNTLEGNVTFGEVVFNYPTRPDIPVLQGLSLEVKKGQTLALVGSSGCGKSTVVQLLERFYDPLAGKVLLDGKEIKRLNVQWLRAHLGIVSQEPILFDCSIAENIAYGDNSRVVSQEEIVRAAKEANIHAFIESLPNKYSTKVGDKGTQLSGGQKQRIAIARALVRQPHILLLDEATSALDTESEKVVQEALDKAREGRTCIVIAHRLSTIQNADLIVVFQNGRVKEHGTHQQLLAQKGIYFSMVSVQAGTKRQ

IC20 (P-gp): 1160 nM
Compound: Cc1cn(-c2cc(NC(=O)c3ccc(C)c(Nc4nccc(-c5cccnc5)n4)c3)cc(C(F)(F)F)c2)cn1 [nilotinib, Nilotinib]
IC20 (ABCG2): 240 nM
